Test results: publication PMC3828334, “Tumor Cell Death Mediated by Peptides That Recognize Branched Intermediates of DNA Replication and Repair” (PLoS ONE, 2013)
Where “and” joins values, the source holds several entries; their conditions need not be identical. Identical values can stand only once. Positions of bridges follow the written chain, without caps; N, C: chain ends. Non-standard residues stand in square brackets, D forms with d. Residues, ends and D or L forms follow the SMILES beside them. Chains are numbered I, II in the order given.

Key:
Chk2 in PC3 cells = assay: Phospho-Chk2 by flow cytometry; format: cell-based; settings: PC3, 50 µM wrwycr on its own, 48 h
Experimental: They were subsequently treated with either 50-200 μM […] or 50-100 μM […] or 0.5-1 μM doxorubicin or combination treatment for 0, 12, 24, 36 and 48 h. […] Samples were analyzed using a Becton Dickinson FACS Canto flow cytometer at a forward scatter voltage of 25 V, side-scatter voltage of 400 V, and FITC channel at a voltage of 400 V.

DuPro-1 cells = format: cell-based; settings: MTT, DuPro-1 cells, 48 h
[1] = system: Holliday junctions vs replication forks; settings: in vitro; ref [20], [22], [26]; cited from earlier work
Text: Our laboratory previously identified peptides and small molecules that bind to Holliday junctions and replication fork mimics, branched DNA structures that are intermediates in DNA repair [18]–[23]. […] In addition to binding HJs in vitro, peptide wrwycr also binds Holliday junctions in vivo [24] and is synergistically toxic with DNA-damaging agents including mitomycin C, UV, H2O2, and topoisomerase inhibitors in bacteria ([25]; Naili, ...

HeLa cells = assay: Live/Dead assay by flow cytometry, HeLa; format: cell-based; settings: ± standard error, at least 4 replicates
Experimental: (§1) PC3 or HeLa cells were seeded at 400,000 or 500,000 cells per well respectively in 6-well tissue culture plates (BD Falcon) and allowed to attach overnight at 37°C with 5% CO2. The cells were incubated with different concentrations of d-wrwycr for 24 or 48 h respectively before the cells were lifted off from the plate. Cell pellets were resuspended in 200 µl of dye solution containing either cell-permeable calcein AM and/or cell-impermeant ethidium homodimer according to the manufacturer's protocol (Live/dead cytotoxicity kit for mammalian cells, Invitrogen and reference). Data were collected in BDFacs Canto and analyzed using FACSDiva software (Becton-Dickenson).

PC3 cells [2] = assay: Cell cycle analysis (PI, flow cytometry); format: cell-based; settings: PC3, 200 µM, 48 h or 72 h, 2 independent experiments; DMSO 14%
Experimental: 600,000 PC3 cells were plated in 60-mm dishes at a concentration of 200,000 cells/ml and allowed to attach before they were serum-starved for 48 h by adding RPMI with no supplemented FBS. The cells were then treated in 100, 150 or 200 µM wrwycr in RPMI supplemented with 10% FBS for either 48 h or 72 h followed by permeabilization with cold 70% ethanol overnight. RNase/PI solution (BD Pharmingen) were added to the cells following the protocol in [33] and incubated for 2.5 h at 37°C and analyzed using the PerCP-Cy5-5 channel in a FACS Canto flow cytometer. The results were analyzed using Flow-Jo software.

PC3 cells [3] = assay: Live/Dead assay by flow cytometry, PC3; format: cell-based; settings: ± standard error, at least 4 replicates
Experimental: as §1, with “solution containing either cell-permeable calcein AM and/or cell-impermeant ethidium homodimer according to the manufacturer's” left out

γH2AX in PC3 cells = assay: γH2AX foci by microscopy and flow cytometry; format: cell-based; settings: PC3, 200 µM, flow cytometry
Experimental: DAPI (5 μg/ml) was used to stain the nucleus. The stained cells on the coverslips were mounted on the glass slides and observed with a Zeiss inverted microscope with AxioVision 4.8 software and using the 100× magnification. Foci of 53BP1 were counted manually and the average number of foci per cell was calculated. […] They were subsequently treated with either 50-200 μM […] or 50-100 μM […] or 0.5-1 μM doxorubicin or combination treatment for 0, 12, 24, 36 and 48 h. […] Samples were analyzed using a Becton Dickinson FACS Canto flow cytometer at a forward scatter voltage of 25 V, side-scatter voltage of 400 V, and FITC channel at a voltage of 400 V.

PPC-1 cells = assay: MTT assay of cell viability, PPC-1; format: cell-based; settings: 48 h
Du145 cells = format: cell-based; settings: 24 h
LnCAP cells = format: cell-based; settings: 48 h

IC50 (Du145 cells): 150 to 200 µM | IC50 (LnCAP cells): 100 to 150 µM
Compound: N=C(N)NCCC[C@@H](NC(=O)[C@@H](CSSC[C@@H](NC(=O)[C@@H](Cc1ccc(O)cc1)NC(=O)[C@@H](Cc1c[nH]c2ccccc12)NC(=O)[C@@H](CCCNC(=N)N)NC(=O)[C@H](N)Cc1c[nH]c2ccccc12)C(=O)N[C@H](CCCNC(=N)N)C(N)=O)NC(=O)[C@@H](Cc1ccc(O)cc1)NC(=O)[C@@H](Cc1c[nH]c2ccccc12)NC(=O)[C@@H](CCCNC(=N)N)NC(=O)[C@H](N)Cc1c[nH]c2ccccc12)C(N)=O [wrwycr, Trp-Arg-Trp-Tyr-Cys-Arg] (I: H-[dW][dR][dW][dY][dC][dR]-NH2 / II: H-[dW][dR][dW][dY][dC][dR]-NH2; disulfide I:5-II:5; N-terminus assumed)
cells with activated Chk2 (Chk2 in PC3 cells): About 5% | IC50 (DuPro-1 cells): the same IC50 as the PC3 cell line | higher affinity for HJs than replication forks [1]: 2–5 fold | Hela population % Dead (HeLa cells; 100 µM wrwycr): 5.4±2.0% | Hela population %Live (HeLa cells; 100 µM wrwycr): 90.4±2.3% | Hela population % Dead (HeLa cells; 150 µM wrwycr): 7.8±2.7% | Hela population %Live (HeLa cells; 150 µM wrwycr): 86.3±2.5% | Hela population % Dead (HeLa cells; 200 µM wrwycr): 12.7±6.0% | Hela population %Live (HeLa cells; 200 µM wrwycr): 79% and 79.3±4.5% | percentage of the S phase cellular population (PC3 cells [2]): 50% | PC3 population %Live (PC3 cells [3]; 100 µM wrwycr, calcein AM): 64.9±2.5% | PC3 population % Dead (PC3 cells [3]; 100 µM wrwycr, propidium iodide permeable): 33.4±2.0% | PC3 population % Dead (PC3 cells [3]; 150 µM wrwycr): 33.8±0.6% | PC3 population %Live (PC3 cells [3]; 150 µM wrwycr): 64.4±0.9% | PC3 population % Dead (PC3 cells [3]; 200 µM wrwycr): 40.6±4.8% | PC3 population %Live (PC3 cells [3]; 200 µM wrwycr): 58% and 57.7±4.7% | γH2AX positive cells (γH2AX in PC3 cells; after 36–48 h): 20–35% | γH2AX positive cells (γH2AX in PC3 cells; between 12–24 h): 2–5% | IC50 (PPC-1 cells): the same IC50 as the PC3 cell line
